Here are results for 33 compounds from patent US9790169B2, “IDO inhibitors” (BRISTOL-MYERS SQUIBB COMPANY, priority 2015, dated 2017).

In the assay the target is human IDO1 (Homo sapiens, UniProt P14902). As to the kind of experiment: Assessment of human IDO-1 inhibitory activity in HEK cells (human IDO1/HEK293 cells, kynurenine read-out with Ehrlich reagent, absorbance 490 nm). It counts as cell-based. The settings on record: HEK Human IDO-1 cellular assay. Further details: expressed in transfected cells. A digest of the protocol: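 HEK293 cells stably expressing human IDO1 were seeded at 10,000 per well in phenol red-free RPMI with 10% FBS, treated with compound for 20 h at 37 °C. Kynurenine was measured after TCA (0.2% final) and 30 min at 50 °C, using Ehrlich reagent, A490. IC50 normalised to DMSO (0%) and 500 nM reference standard (100%).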
Chain of human IDO1 (P14902 whole entry): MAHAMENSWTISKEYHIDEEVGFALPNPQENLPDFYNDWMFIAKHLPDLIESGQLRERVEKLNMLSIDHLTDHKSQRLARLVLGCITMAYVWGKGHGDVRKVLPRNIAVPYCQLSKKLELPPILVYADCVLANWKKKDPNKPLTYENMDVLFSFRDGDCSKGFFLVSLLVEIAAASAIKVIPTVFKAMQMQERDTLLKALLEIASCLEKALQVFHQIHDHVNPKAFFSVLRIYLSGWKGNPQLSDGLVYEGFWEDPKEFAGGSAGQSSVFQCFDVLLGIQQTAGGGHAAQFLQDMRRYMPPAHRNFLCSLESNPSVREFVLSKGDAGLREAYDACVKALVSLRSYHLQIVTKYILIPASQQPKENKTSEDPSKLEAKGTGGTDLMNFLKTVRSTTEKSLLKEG

pIC50: −log10 of the molar value. Bounds are passed on as bounds.

Take `Cc1ccc(NC(=O)Nc2cc(C(C)CC(=O)O)ccc2N(CC(C)C)C2CCOCC2)cc1` (single isomer, unassigned) [Example 958, 3-(4-(Isobutyl(tetrahydro-2H-pyran-4-yl)amino)-3-(3-(p-tolyl)ureido)phenyl)butanoic acid]: the pIC50 is greater than 7.30.
As to `CCOc1ccc(NC(=O)Nc2cc(C(C)CC(=O)O)ccc2N(CC(C)C)C2CCOCC2)cc1` (single isomer, unassigned) [Example 960, 3-(3-(3-(4-ethoxyphenyl)ureido)-4-(isobutyl(tetrahydro-2H-pyran-4-yl)amino)phenyl)butanoic acid], the negative logarithm of the IC50 (pIC50) is greater than 7.30.
In the case of `CC(C)CN(c1ccc(C(C)CC(=O)O)cc1NC(=O)Nc1cncnc1)C1CCOCC1` (single isomer, unassigned) [Example 961, 3-(4-(isobutyl(tetrahydro-2H-pyran-4-yl)amino)-3-(3-(pyrimidin-5-yl)ureido)phenyl)butanoic acid], the pIC50 was less than 7.30.
With `CCOc1ccc(NC(=O)Nc2cc(C(C)CC(=O)O)ccc2N(CC(C)C)C2CCOCC2)cc1` (single isomer, unassigned) [Example 963, 3-(3-(3-(4-ethoxyphenyl)ureido)-4-(isobutyl(tetrahydro-2H-pyran-4-yl)amino)phenyl)butanoic acid], the negative-log IC50 (pIC50) was less than 7.30.
Turning to `Cc1ccc(CC(=O)Nc2cc(C(C)CC(=O)O)ccc2N(CC(C)C)C2CCOCC2)cc1` (single isomer, unassigned) [Example 966, 3-(4-(Isobutyl(tetrahydro-2H-pyran-4-yl)amino)-3-(2-(p-tolyl)acetamido)phenyl)butanoic acid], the negative-log IC50 (pIC50) was greater than 7.30.
`CC(C)CN(c1ccc(C(C)CC(=O)O)cc1Nc1nc2ccccc2o1)C1CCOCC1` (single isomer, unassigned) [Example 968, 3-(3-(Benzo[d]oxazol-2-ylamino)-4-(isobutyl(tetrahydro-2H-pyran-4-yl)amino)phenyl)butanoic acid]: the pIC50 is greater than 7.30.
Consider `CC(C)CN(c1ccc(C(C)CC(=O)O)cc1Nc1nc2ccccc2o1)C1CCOCC1` (single isomer, unassigned) [Example 969, 3-(3-(Benzo[d]oxazol-2-ylamino)-4-(isobutyl(tetrahydro-2H-pyran-4-yl)amino)phenyl)butanoic acid], for which the negative logarithm of the IC50 (pIC50) is less than 7.30.
Take `CCC(CC(=O)O)c1cc(F)c(N(CC(C)C)CC(C)C)c(NC(=O)Cc2ccc(F)cc2F)c1` (single isomer, unassigned) [Example 1093 E1]: the pIC50 is greater than 8.30.
The figure for `CCC(CC(=O)O)c1cc(F)c(N(CC(C)C)CC(C)C)c(NC(=O)Cc2ccc(F)cc2F)c1` (single isomer, unassigned) [Example 1093 E2] is greater than 8.30.
For the compound `CCC(CC(=O)O)c1cc(F)c(N(CC(C)C)CC(C)C)c(NC(=O)Cc2ccc(C)cc2F)c1` (single isomer, unassigned) [Example 1094 E1], the negative-log IC50 (pIC50) is greater than 8.30.
Take `CCC(CC(=O)O)c1cc(F)c(N(CC(C)C)CC(C)C)c(NC(=O)Cc2ccc(C)cc2F)c1` (single isomer, unassigned) [Example 1094 E2]: the pIC50 was greater than 8.30.
For `CCC(CC(=O)O)c1ccc(N(CC(C)C)C2CCCCC2)c(NC(=O)Cc2ccc(Cl)cc2F)c1` (single isomer, unassigned) [Example 1096 E1], the pIC50 is greater than 8.30.
With `CCC(CC(=O)O)c1ccc(N(CC(C)C)C2CCCCC2)c(NC(=O)Cc2ccc(Cl)cc2F)c1` (single isomer, unassigned) [Example 1096 E2], the pIC50 is greater than 8.30.
As for `CCC(CC(=O)O)c1ccc(N(CC(C)C)C2CCCCC2)c(NC(=O)Cc2cc(F)ccc2F)c1` (single isomer, unassigned) [Example 1098 E1], the figure is greater than 8.30; as for `CCC(CC(=O)O)c1ccc(N(CC(C)C)C2CCCCC2)c(NC(=O)Cc2cc(F)ccc2F)c1` (single isomer, unassigned) [Example 1098 E2], greater than 8.30.
Take `CCC(CC(=O)O)c1ccc(N(CC(C)C)CC(C)C)c(NC(=O)Cc2ccc(C)cc2)c1` (single isomer, unassigned) [Example 1103 E1, 3-(4-(Diisobutylamino)-3-(2-(p-tolyl)acetamido)phenyl)pentanoic acid]: the negative-log IC50 (pIC50) was greater than 8.30.
As to `CCC(CC(=O)O)c1ccc(N(CC(C)C)CC(C)C)c(NC(=O)Cc2ccc(C#N)cc2)c1` (single isomer, unassigned) [Example 1104, 3-(3-(2-(4-Cyanophenyl)acetamido)-4-(diisobutylamino)phenyl)pentanoic acid], the negative-log IC50 (pIC50) is greater than 8.30.
Turning to `CCC(CC(=O)O)c1cc(NC(=O)Nc2ccc(C)cc2)c(N(CC(C)C)C2CCCCC2)cc1F` (single isomer, unassigned) [Example 1106, 3-(4-(Cyclohexyl(isobutyl)amino)-2-fluoro-5-(3-(p-tolyl)ureido)phenyl)pentanoic acid], the pIC50 was greater than 8.30.
In the case of `CCOc1ccc(NC(=O)Nc2cc(C(CC)CC(=O)O)c(F)cc2N(CC(C)C)C2CCCCC2)cc1` (single isomer, unassigned) [Example 1108, 3-(4-(Cyclohexyl(isobutyl)amino)-5-(3-(4-ethoxyphenyl)ureido)-2-fluorophenyl)pentanoic acid], the negative logarithm of the IC50 (pIC50) was greater than 8.30.
The figure for `CCC(CC(=O)O)c1cc(NC(=O)Nc2ccc3c(c2)OCO3)c(N(CC(C)C)C2CCCCC2)cc1F` (single isomer, unassigned) [Example 1111, 3-(5-(3-(Benzo[d][1,3]dioxol-5-yl)ureido)-4-(cyclohexyl(isobutyl)amino)-2-fluorophenyl)pentanoic acid] is greater than 8.30; for `CCC(CC(=O)O)c1cc(NC(=O)Nc2cc(C)no2)c(N(CC(C)C)C2CCCCC2)cc1F` (single isomer, unassigned) [Example 1114, 3-(4-(Cyclohexyl(isobutyl)amino)-2-fluoro-5-(3-(3-methylisoxazol-5-yl)ureido)phenyl)pentanoic acid] it is greater than 8.30.
For the compound `CCOc1ccc(NC(=O)Nc2cc(C(CC)CC(=O)O)c(F)cc2N(CC(C)C)C2CCCCC2)c(F)c1` (single isomer, unassigned) [Example 1117, 3-(4-(Cyclohexyl(isobutyl)amino)-5-(3-(4-ethoxy-2-fluorophenyl)ureido)-2-fluorophenyl)pentanoic acid], the negative-log IC50 (pIC50) was greater than 8.30.
On to `CCC(CC(=O)O)c1cc(NC(=O)Nc2ccc(C)cc2F)c(N(CC(C)C)C2CCCCC2)cc1F` (single isomer, unassigned) [Example 1120, 3-(4-(Cyclohexyl(isobutyl)amino)-2-fluoro-5-(3-(2-fluoro-4-methylphenyl)ureido)phenyl)pentanoic acid], for which the negative logarithm of the IC50 (pIC50) is greater than 8.30.
Take `CCC(CC(=O)O)c1cc(NC(=O)Nc2cncnc2)c(N(CC(C)C)C2CCCCC2)cc1F` (single isomer, unassigned) [Example 1123, 3-(4-(cyclohexyl(isobutyl)amino)-2-fluoro-5-(3-(pyrimidin-5-yl)ureido)phenyl)pentanoic acid]: the negative logarithm of the IC50 (pIC50) was greater than 8.30.
On to `CCC(CC(=O)O)c1cc(NC(=O)Nc2cnc(C)nc2)c(N(CC(C)C)C2CCCCC2)cc1F` (single isomer, unassigned) [Example 1126, 3-(4-(Cyclohexyl(isobutyl)amino)-2-fluoro-5-(3-(2-methylpyrimidin-5-yl)ureido)phenyl)pentanoic acid], for which the pIC50 is greater than 8.30.
Take `CCC(CC(=O)O)c1cc(NC(=O)Nc2ccc(C)cc2)c(N(CC(C)C)CC(C)C)cc1F` (single isomer, unassigned) [Example 1129, 3-(4-(Diisobutylamino)-2-fluoro-5-(3-(p-tolyl)ureido)phenyl)pentanoic acid]: the pIC50 was greater than 8.30.
As for `CCOc1ccc(NC(=O)Nc2cc(C(CC)CC(=O)O)c(F)cc2N(CC(C)C)CC(C)C)cc1` (single isomer, unassigned) [Example 1132, 3-(4-(Diisobutylamino)-5-(3-(4-ethoxyphenyl)ureido)-2-fluorophenyl)pentanoic acid], the figure is greater than 8.30; as for `CCC(CC(=O)O)c1cc(NC(=O)Nc2ccc3c(c2)OCO3)c(N(CC(C)C)CC(C)C)cc1F` (single isomer, unassigned) [Example 1135, 3-(5-(3-(Benzo[d][1,3]dioxol-5-yl)ureido)-4-(diisobutylamino)-2-fluorophenyl)pentanoic acid], greater than 8.30; as for `CCOc1ccc(NC(=O)Nc2cc(C(CC)CC(=O)O)c(F)cc2N(CC(C)C)CC(C)C)c(F)c1` (single isomer, unassigned) [Example 1138, 3-(4-(Diisobutylamino)-5-(3-(4-ethoxy-2-fluorophenyl)ureido)-2-fluorophenyl)pentanoic acid], greater than 8.30.
`CCC(CC(=O)O)c1cc(NC(=O)Nc2cnc(OC)nc2)c(N(CC(C)C)CC(C)C)cc1F` (single isomer, unassigned) [Example 1141, 3-(4-(Diisobutylamino)-2-fluoro-5-(3-(2-methoxypyrimidin-5-yl)ureido)phenyl)pentanoic acid]: the negative logarithm of the IC50 (pIC50) is greater than 8.30.
With `CCC(CC(=O)O)c1ccc(N2CCC[C@@H]2COC)c(NC(=O)Cc2ccc(C)cc2)c1` (single isomer, unassigned) [Example 1144], the pIC50 was less than 7.30.
As for `COCC(CC(=O)O)c1cc(F)c(N(CC(C)C)C2CCCCC2)c(NC(=O)Nc2ccc(OC)cc2F)c1` (single isomer, unassigned) [Example 1152, 3-(4-(Cyclohexyl(isobutyl)amino)-3-fluoro-5-(3-(2-fluoro-4-methoxyphenyl)ureido)phenyl)-4-methoxybutanoic acid], the figure is greater than 8.30; as for `CCOc1ccc(NC(=O)Nc2cc(C(COC)CC(=O)O)cc(F)c2N(CC(C)C)C2CCCCC2)cc1` (single isomer, unassigned) [Example 1153, 3-(4-(cyclohexyl(isobutyl)amino)-3-(3-(4-ethoxyphenyl)ureido)-5-fluorophenyl)-4-methoxybutanoic acid], greater than 7.30.

Usually pIC50 stands for the IC50 on a negative log10 scale, so that one unit is a factor of ten.
